Results: patent US6737383B1, “Herbicidal oxadiazolidines” (priority 1999, dated 2004)

Experiments:
[1] = test system: cocklebur; assay: Test B pre/postemergence cocklebur; assay type: in vivo, Xanthium strumarium
Summary of the method: (§1)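 Response is a visual 0-to-10 score relative to untreated plants, where 0 means no effect and 10 means complete control, taken twelve to sixteen days after application. Treatments went onto soil at planting and onto foliage of 1- to 4-leaf plants, using a surfactant-containing non-phytotoxic solvent.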

[2] = test system: pigweed; assay: Test B pre/postemergence pigweed; assay type: in vivo, Amaranthus retroflexus
Summary of the method: as §1

[3] = test system: rape; assay: Test B pre/postemergence rape; assay type: in vivo, Brassica napus
Summary of the method: as §1

[4] = test system: giant foxtail; assay: Test B pre/postemergence giant foxtail; assay type: in vivo, Setaria faberii
Summary of the method: as §1

[5] = test system: purple nutsedge; assay: Test B pre/postemergence purple nutsedge; assay type: in vivo, Cyperus rotundus
Summary of the method: as §1

[6] = test system: blackgrass; assay: Test B pre/postemergence blackgrass; assay type: in vivo, Alopecurus myosuroides
Summary of the method: as §1

[7] = test system: bamyardgrass; assay: Test B flood test barnyardgrass; assay type: in vivo, Echinochloa crus-galli
Summary of the method: (§2)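 Plants were grown to the 2-leaf stage before treatment with test chemical, then held in a greenhouse for twelve to sixteen days. Injury was visually rated against untreated controls on a 0–10 scale, where 0 is no effect and 10 is complete control.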

[8] = test system: rice; assay: Test B flood test rice; assay type: in vivo, Oryza sativa
Summary of the method: as §2

[9] = test system: wheat; assay: Test B pre/postemergence wheat; assay type: in vivo, Triticum aestivum
Summary of the method: as §1

[10] = test system: smallflower flatsedge; assay: Test B flood test smallflower flatsedge; assay type: in vivo, Cyperus difformis
Summary of the method: as §2

[11] = test system: surinam grass; assay: Test B pre/postemergence surinam grass; assay type: in vivo, Brachiaria decumbens
Summary of the method: as §1

[12] = test system: sugar beet; assay: Test B pre/postemergence sugar beet; assay type: in vivo, Beta vulgaris
Summary of the method: as §1

[13] = test system: corn; assay: Test B pre/postemergence corn; assay type: in vivo, Zea mays
Summary of the method: as §1

[14] = test system: crabgrass; assay: Test B pre/postemergence crabgrass; assay type: in vivo, Digitaria sanguinalis
Summary of the method: as §1

[15] = test system: duck salad; assay: Test B flood test duck salad; assay type: in vivo, Heteranthera limosa
Summary of the method: as §2

[16] = test system: soybean; assay: Test B pre/postemergence soybean; assay type: in vivo, Glycine max
Summary of the method: as §1

[17] = Postemergence, Rate 62 g/ha, scale 0 to 10, 0 is no effect, 10 is complete control
[18] = Postemergence, Rate 125 g/ha, scale of 0 to 10 where 0 is no effect and 10 is complete control
[19] = Postemergence, Rate 250 g/ha, scale of 0 to 10, 0 is no effect, 10 is complete control
[20] = Postemergence, Rate 500 g/ha, scale of 0 to 10 where 0 is no effect and 10 is complete control
[21] = Preemergence, Rate 62 g/ha, scale 0 to 10 (0 no effect, 10 complete control)
[22] = Preemergence, Rate 125 g/ha, scale of 0 to 10 where 0 is no effect and 10 is complete control
[23] = Preemergence, Rate 250 g/ha, scale 0 to 10 (0 no effect, 10 complete control)
[24] = Preemergence, Rate 500 g/ha, scale of 0 to 10 where 0 is no effect and 10 is complete control
[25] = Rate 62 g/ha, flood test species, Pre-emergence, visual evaluation after twelve to sixteen days
[26] = Rate 125 g/ha, under heading Pre-emergence, flood test species, visual evaluation after twelve to sixteen days
[27] = Rate 250 g/ha, Pre-emergence (flood test species), scale 0 to 10, 0 is no effect, 10 is complete control
[28] = Rate 500 g/ha, Pre-emergence section of Table B, 0 to 10 scale (0 no effect, 10 complete control)

In the case of `COCCn1c(=O)on(C(=O)N(c2ccccc2)C(C)C)c1=O` [Compound 631], the “Plant response rating, Cocklebur” value [1, 17] is reported as 0, the “Plant response rating, Cocklebur” value [1, 18] is reported as 0 and the “Cocklebur plant response rating” value [1, 19] is reported as 0. The “Plant response rating, Cocklebur” value [1, 20] was 2, the “Cocklebur plant response rating” value [1, 21] was 0 and the “Cocklebur plant response rating” value [1, 22] was 0. For the same compound, the “Plant response rating, Cocklebur” value [1, 23] was 0, the “Plant response rating, Cocklebur” value [1, 24] was 2 and the “Plant response rating, Redroot pigweed” value [2, 17] was 0. The “Plant response rating, Redroot pigweed” value [2, 18] was 0, the “Redroot pigweed plant response rating” value [2, 21] was 7 and the “Redroot pigweed plant response rating” value [2, 22] was 9. The “Plant response rating, Redroot pigweed” value [2, 23] was 10, the “Plant response rating, Redroot pigweed” value [2, 24] was 10 and the “Plant response rating, Rape” value [3, 17] was 0. For the same compound, the “Plant response rating, Rape” value [3, 18] was 0, the “Rape plant response rating” value [3, 19] was 2 and the “Plant response rating, Rape” value [3, 20] was 2. The “Rape plant response rating” value [3, 21] was 0, the “Rape plant response rating” value [3, 22] was 0 and the “Plant response rating, Rape” value [3, 23] was 6. For the same compound, the “Plant response rating, Rape” value [3, 24] was 8, the “Plant response rating, Giant foxtail” value [4, 17] was 8 and the “Plant response rating, Giant foxtail” value [4, 18] was 9. For the same compound, the “Giant foxtail plant response rating” value [4, 19] was 9, the “Plant response rating, Giant foxtail” value [4, 20] was 9 and the “Giant foxtail plant response rating” value [4, 21] was 9. The “Giant foxtail plant response rating” value [4, 22] was 9, the “Plant response rating, Giant foxtail” value [4, 23] was 10 and the “Plant response rating, Giant foxtail” value [4, 24] was 10. For the same compound, the “Plant response rating, Nutsedge” value [5, 17] was 0, the “Plant response rating, Nutsedge” value [5, 18] was 0 and the “Nutsedge plant response rating” value [5, 19] was 0. For the same compound, the “Nutsedge plant response rating” value [5, 21] was 0, the “Nutsedge plant response rating” value [5, 22] was 4 and the “Plant response rating, Nutsedge” value [5, 23] was 4. The “Plant response rating, Nutsedge” value [5, 24] was 8, the “Plant response rating, Blackgrass” value [6, 17] was 1 and the “Plant response rating, Blackgrass” value [6, 18] was 8. For the same compound, the “Blackgrass plant response rating” value [6, 19] was 6, the “Plant response rating, Blackgrass” value [6, 20] was 9 and the “Blackgrass plant response rating” value [6, 21] was 6. For the same compound, the “Blackgrass plant response rating” value [6, 22] was 7, the “Plant response rating, Blackgrass” value [6, 23] was 9 and the “Plant response rating, Blackgrass” value [6, 24] was 10. The “Plant response rating, Barnyardgrass (0 to 10 scale, 0 is no effect, 10 is complete control)” value [7, 25] was 0, the “Barnyardgrass plant response rating (0 to 10 scale, 0 is no effect, 10 is complete control)” value [7, 26] was 1 and the “Barnyardgrass plant response rating” value [7, 27] was 4. For the same compound, the “Barnyardgrass plant response rating” value [7, 28] was 4, the “Plant response rating, Rice (0 to 10 scale, 0 is no effect, 10 is complete control)” value [8, 25] was 0 and the “Rice plant response rating (0 to 10 scale, 0 is no effect, 10 is complete control)” value [8, 26] was 0. The “Rice plant response rating” value [8, 27] was 0, the “Rice plant response rating” value [8, 28] was 0 and the “Plant response rating, Wheat” value [9, 17] was 0. For the same compound, the “Plant response rating, Wheat” value [9, 18] was 2, the “Wheat plant response rating” value [9, 19] was 6 and the “Wheat plant response rating” value [9, 21] was 0. For the same compound, the “Wheat plant response rating” value [9, 22] was 3, the “Plant response rating, Wheat” value [9, 23] was 8 and the “Plant response rating, Wheat” value [9, 24] was 9. The “Plant response rating, S. Flatsedge (0 to 10 scale, 0 is no effect, 10 is complete control)” value [10, 25] was 0, the “S. Flatsedge plant response rating (0 to 10 scale, 0 is no effect, 10 is complete control)” value [10, 26] was 0 and the “S. Flatsedge plant response rating” value [10, 27] was 0. For the same compound, the “S. Flatsedge plant response rating” value [10, 28] was 0, the “Plant response rating, B. signalgrass” value [11, 17] was 1 and the “Plant response rating, B. signalgrass” value [11, 18] was 3. The “B. signalgrass plant response rating” value [11, 19] was 6, the “Plant response rating, B. signalgrass” value [11, 20] was 8 and the “B. signalgrass plant response rating” value [11, 21] was 6. For the same compound, the “B. signalgrass plant response rating” value [11, 22] was 7, the “Plant response rating, B. signalgrass” value [11, 23] was 10 and the “Plant response rating, B. signalgrass” value [11, 24] was 10. The “Plant response rating, Sugarbeets” value [12, 17] was 0, the “Plant response rating, Sugarbeets” value [12, 18] was 0 and the “Sugarbeets plant response rating” value [12, 19] was 0. For the same compound, the “Sugarbeets plant response rating” value [12, 21] was 0, the “Sugarbeets plant response rating” value [12, 22] was 3 and the “Plant response rating, Sugarbeets” value [12, 23] was 4. The “Plant response rating, Sugarbeets” value [12, 24] was 8, the “Plant response rating, Corn” value [13, 17] was 5 and the “Plant response rating, Corn” value [13, 18] was 5. For the same compound, the “Corn plant response rating” value [13, 19] was 6, the “Plant response rating, Corn” value [13, 20] was 8 and the “Corn plant response rating” value [13, 21] was 5. The “Corn plant response rating” value [13, 22] was 6, the “Plant response rating, Corn” value [13, 23] was 8 and the “Plant response rating, Corn” value [13, 24] was 9. The “Plant response rating, Crabgrass” value [14, 17] was 8, the “Plant response rating, Crabgrass” value [14, 18] was 9 and the “Crabgrass plant response rating” value [14, 19] was 9. For the same compound, the “Plant response rating, Crabgrass” value [14, 20] was 9, the “Crabgrass plant response rating” value [14, 21] was 7 and the “Crabgrass plant response rating” value [14, 22] was 7. The “Plant response rating, Crabgrass” value [14, 23] was 9, the “Plant response rating, Crabgrass” value [14, 24] was 9 and the “Plant response rating, Ducksalad (0 to 10 scale, 0 is no effect, 10 is complete control)” value [15, 25] was 0. The “Ducksalad plant response rating (0 to 10 scale, 0 is no effect, 10 is complete control)” value [15, 26] was 0, the “Ducksalad plant response rating” value [15, 27] was 0 and the “Ducksalad plant response rating” value [15, 28] was 0. For the same compound, the “Plant response rating, Soybean” value [16, 17] was 5, the “Plant response rating, Soybean” value [16, 18] was 5 and the “Soybean plant response rating” value [16, 19] was 8. For the same compound, the “Soybean plant response rating” value [16, 21] was 2, the “Soybean plant response rating” value [16, 22] was 5 and the “Plant response rating, Soybean” value [16, 23] was 9. For the same compound, the “Plant response rating, Soybean” value [16, 24] was 9.
